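Grown in 96-well plates, cells were treated for 48 hours with each compound at five concentrations. Insufficient inhibition: endpoint recorded as highest concentration tested. TGI marks complete inhibition of growth.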
Tests used:
Assay in all cases: NCI-60 cell line screen, 48 h
[1] = test system: A498 renal
[2] = test system: A549 NSCLC
[3] = test system: ACHN renal
[4] = test system: BT-549 breast
[5] = test system: CAKI-1 renal
[6] = test system: CCRF-CEM leukemia
[7] = test system: COLO 205 colon
[8] = test system: DU-145 prostate
[9] = test system: HCC-2998 colon
[10] = test system: HCT-15 colon
[11] = test system: HL-60(TB) leukemia
[12] = test system: HOP-62 NSCLC
[13] = test system: HOP-92 NSCLC
[14] = test system: HS 578T breast
[15] = test system: HT29 colon
[16] = test system: IGROV1 ovarian
[17] = test system: K-562 leukemia
[18] = test system: KM12 colon
[19] = test system: M14 melanoma
[20] = test system: MALME-3M melanoma
[21] = test system: MCF7 breast
[22] = test system: MDA-MB-231 breast
[23] = test system: MDA-MB-435
[24] = test system: MDA-N
[25] = test system: NCI-H226 lung
[26] = test system: NCI-H23 lung
[27] = test system: NCI-H460 lung
[28] = test system: NCI-H522 lung
[29] = test system: NCI/ADR-RES ovarian
[30] = test system: OVCAR-3 ovarian
[31] = test system: OVCAR-4 ovarian
[32] = test system: OVCAR-5 ovarian
[33] = test system: OVCAR-8 ovarian
[34] = test system: PC-3 prostate
[35] = test system: RPMI-8226 leukemia
[36] = test system: RXF 393 renal
[37] = test system: SF-268 CNS
[38] = test system: SF-295 CNS
[39] = test system: SF-539 CNS
[40] = test system: SK-MEL-2 melanoma
[41] = test system: SK-MEL-28 melanoma
[42] = test system: SK-MEL-5 melanoma
[43] = test system: SK-OV-3 ovarian
[44] = test system: SN12C renal
[45] = test system: SNB-19 CNS
[46] = test system: SNB-75 CNS
[47] = test system: SR leukemia
[48] = test system: SW-620 colon
[49] = test system: T-47D breast
[50] = test system: TK-10 renal
[51] = test system: U251 CNS
[52] = test system: UACC-257 melanoma
[53] = test system: UACC-62 melanoma
[54] = test system: UO-31 renal
[55] = test system: 786-0 renal
[56] = test system: EKVX NSCLC
[57] = test system: HCT-116 colon
[58] = test system: LOX IMVI melanoma
[59] = test system: MOLT-4 leukemia

Which results are given for `Cn1ccc(C(=O)NCCN(CCNC(=O)c2ccn(C)c(=O)c2O)CCNC(=O)c2ccn(C)c(=O)c2O)c(O)c1=O`?
TGI [1]: > 100 µM; TGI [2]: > 100 µM; TGI [3]: > 100 µM; TGI [4]: > 100 µM; TGI [5]: > 100 µM; TGI [6]: > 100 µM; TGI [7]: > 100 µM; TGI [8]: > 100 µM; TGI [9]: > 100 µM; TGI [10]: > 100 µM; TGI [11]: > 100 µM; TGI [12]: > 100 µM; TGI [13]: > 100 µM; TGI [14]: > 100 µM; TGI [15]: > 100 µM; TGI [16]: > 100 µM; TGI [17]: > 100 µM; TGI [18]: > 100 µM; TGI [19]: > 100 µM; TGI [20]: > 100 µM; TGI [21]: > 100 µM; TGI [22]: > 100 µM; TGI [23]: > 100 µM; TGI [24]: > 100 µM; TGI [25]: > 100 µM; TGI [26]: > 100 µM; TGI [27]: > 100 µM; TGI [28]: > 100 µM; TGI [29]: > 100 µM; TGI [30]: > 100 µM; TGI [31]: > 100 µM; TGI [32]: > 100 µM; TGI [33]: > 100 µM; TGI [34]: > 100 µM; TGI [35]: > 100 µM; TGI [36]: > 100 µM; TGI [37]: > 100 µM; TGI [38]: > 100 µM; TGI [39]: > 100 µM; TGI [40]: > 100 µM; TGI [41]: > 100 µM; TGI [42]: > 100 µM; TGI [43]: > 100 µM; TGI [44]: > 100 µM; TGI [45]: > 100 µM; TGI [46]: > 100 µM; TGI [47]: > 100 µM; TGI [48]: > 100 µM; TGI [49]: > 100 µM; TGI [50]: > 100 µM; TGI [51]: > 100 µM; TGI [52]: > 100 µM; TGI [53]: > 100 µM; TGI [54]: > 100 µM

What does the source list for `O=C(/C=C/c1ccc(C(F)(F)F)cc1)c1c([O-])on[n+]1-c1ccccc1`?
TGI [55]: 1.71 µM; TGI [1]: 14.8 µM; TGI [2]: 12.3 µM; TGI [3]: 2.94 µM; TGI [4]: 3.04 µM; TGI [5]: 0.879 µM; TGI [6]: 0.188 µM; TGI [7]: 4.91 µM; TGI [8]: 7.17 µM; TGI [56]: 5.83 µM; TGI [9]: 4.18 µM; TGI [57]: 3.85 µM; TGI [10]: 3.12 µM; TGI [11]: 0.459 µM; TGI [12]: 13 µM; TGI [13]: 3.06 µM; TGI [14]: > 32.3 µM; TGI [15]: 2.25 µM; TGI [16]: 4.02 µM; TGI [17]: > 100 µM; TGI [18]: 7.1 µM; TGI [58]: 1.56 µM; TGI [19]: 6.6 µM; TGI [20]: > 100 µM; TGI [21]: > 34.5 µM; TGI [22]: 20 µM; TGI [24]: 8.69 µM; TGI [59]: 2.04 µM; TGI [25]: > 29.9 µM; TGI [26]: 10 µM; TGI [27]: 6.44 µM; TGI [29]: 4.18 µM; TGI [30]: 3.37 µM; TGI [31]: 48.9 µM; TGI [32]: 8.06 µM; TGI [33]: 5.38 µM; TGI [34]: 9.2 µM; TGI [36]: 2.68 µM; TGI [37]: > 26.2 µM; TGI [38]: 20.2 µM; TGI [39]: 3.98 µM; TGI [40]: 9.64 µM; TGI [41]: 2.89 µM; TGI [42]: 12.7 µM; TGI [43]: > 63.4 µM; TGI [44]: 7.71 µM; TGI [45]: 15.5 µM; TGI [46]: 5.87 µM; TGI [47]: 0.846 µM; TGI [49]: 3.82 µM; TGI [50]: 3.07 µM; TGI [52]: 6.93 µM; TGI [53]: 2.81 µM; TGI [54]: 4 µM

Which results are given for `Cc1c(Cl)nc(Cl)nc1Cl`?
TGI [55]: 3.7 µM; TGI [1]: 11.9 µM; TGI [2]: 7.34 µM; TGI [3]: 0.829 µM; TGI [4]: 10.2 µM; TGI [5]: 0.695 µM; TGI [6]: 0.676 µM; TGI [7]: 1.15 µM; TGI [8]: 11.1 µM; TGI [56]: 3.82 µM; TGI [9]: 2.73 µM; TGI [57]: 3.95 µM; TGI [10]: 1.25 µM; TGI [12]: 9.22 µM; TGI [13]: 4.99 µM; TGI [14]: 8.31 µM; TGI [15]: 6.4 µM; TGI [16]: 8.33 µM; TGI [18]: 6.15 µM; TGI [58]: 1.34 µM; TGI [19]: 2.11 µM; TGI [20]: 2.68 µM; TGI [21]: 2.6 µM; TGI [22]: 2.99 µM; TGI [23]: 6.75 µM; TGI [24]: 6.85 µM; TGI [59]: 1.38 µM; TGI [25]: 8.46 µM; TGI [26]: 4.64 µM; TGI [27]: 20.1 µM; TGI [28]: 0.118 µM; TGI [29]: 4.45 µM; TGI [30]: 3.25 µM; TGI [31]: 2.8 µM; TGI [32]: 3.46 µM; TGI [33]: 18.9 µM; TGI [34]: 5.35 µM; TGI [36]: 4.07 µM; TGI [37]: 4.01 µM; TGI [38]: 10.6 µM; TGI [39]: 5.62 µM; TGI [41]: 8.5 µM; TGI [42]: 5.8 µM; TGI [43]: 11.7 µM; TGI [44]: 7.53 µM; TGI [45]: 9.09 µM; TGI [46]: 11.7 µM; TGI [47]: 10.8 µM; TGI [48]: 4.68 µM; TGI [49]: 4.11 µM; TGI [50]: 7.16 µM; TGI [51]: 3.18 µM; TGI [52]: 5.67 µM; TGI [53]: 9.42 µM; TGI [54]: 1.18 µM

Reference: PubChem BioAssay (NCI)
